Results from US20240197756A1, “METHODS OF TREATMENT WITH NEUROACTIVE STEROIDS” (priority 2021, published 2024).
“Also recorded” adds a separate entry of the source.

Columns and labels:
[1] = test system: patients with severe major depressive disorder (MDD); test: Open-label study in severe MDD, Part A efficacy (HAM-D); assay type: in vivo, human; settings: for patients meeting the HAM-D Response or Remission criteria: Day 15
Experimental: The study is an open-label, study comprised of two dosing periods, Part A and Part B, during which patients were treated with an oral suspension of Compound 1. Part A was an open-label assessment of two dose levels of Compound 1 (45 mg qHS Cohort 1 and 80 mg qHS Cohort, i.e., once daily administration at bedtime) administered for 7 days inpatient followed by 7 days outpatient. Compound 1 was administered at 4 p.m. on Day 1 in order to collect post-dosing PK samples that could not be collected with qHS dosing.
In Part A, participants were administered daily doses of Compound 1 (45 mg Cohort and 80 mg Cohort) at 4 p.m. on Day 1 and qHS on all other study days for 7 days inpatient followed by 7 days outpatient (with subsequent Cohorts receiving up to 120 mg qHS). Participants checked into the clinic on Day 1. During this period the following assessments were performed: adverse event assessments, vital signs, physical examinations, blood and urine samples for safety assessments, ECGs, C-SSRS assessments, blood samples for PK, and efficacy assessments (HAM-D, MADRS, HAM-A, CGI [CGI-S and CGI-I], PSQI, and SDQ). Baseline assessments occurred on Day 1 prior to administration of study drug. On Day 8, prior to discharge, participants were supplied with sufficient Compound 1 to complete 7 days of dosing.
Patients were administered daily doses of Compound 1 for 7 days inpatient followed by 7 days outpatient.
In the 45 mg Cohort, patients were administered once daily dose of 45 mg of Compound 1 at bedtime for 7 days inpatient followed by once daily dose of 45 mg of Compound 1 at bedtime for 7 days outpatient.
In the 80 mg Cohort, patients were administered once daily dose of 80 mg of Compound 1 at bedtime for 7 days inpatient followed by once daily dose of 80 mg of Compound 1 at bedtime for 7 days outpatient.
Part A: In Part A, HAM-D, MADRS, HAM-A, CGI-S, and CGI-I values were collected in the morning of Days 1, 2, 3, 4, 5, 6, 7, 8, 15, 21 and 28. PSQI and SDQ values will be collected on Days 1, 8, 15, 21 and 28. Part B: In Part B, HAM-D, MADRS, HAM-A, CGI-S, CGI-I, PSQI and SDQ values will be collected on the days described for Part A.
HAM-D Response was defined as a reduction from baseline of ≥50% in total HAM-D score. HAM-D remission was defined as a total HAM-D score of ≤7.
Efficacy analysis: For both parts of the clinical trial, the HAM-D total score and change from baseline values will be summarized by treatment group and time point. In addition, the change from baseline in HAM-D total score will also be analyzed using paired t-tests or similar methods. The null hypothesis of this test is that the mean difference in HAM-D total score between paired observations (i.e., pre- and post-treatment) is zero. Similar analysis methods will be used for all secondary and exploratory efficacy variables.

[2] = test system: GABAA receptors in the brain; test: Quantitative EEG (qEEG) alpha- and beta-band power in Phase 1 MAD trial; assay type: in vivo, human
Experimental: Pharmacodynamic (PD) effects of first dose and steady state Compound 1 concentrations on wake electroencephalograms (EEGs) were studied. Standard 16 channel continuous EEGs were obtained at the following time points: Day-1, Day 1 (1 hour after dosing), and Day 14 (1 hour after dosing).
The effect of Compound 1 on the quantitative EEG (qEEG) was measured in a Phase 1 multiple ascending dose (MAD) trial to understand the pharmacodynamic effect of Compound 1 on GABAA receptor activation. The frequency and amplitude of the detected electrical signals in response to treatment with a brain-active compound provide insights into brain function and brain state (e.g., awake, deep sleep, etc.) or pharmacological response. For instance, changes in power in the beta-band frequency can be used as a pharmacodynamic biomarker of GABAA receptor activation in response to a brain active compound.
EEG was recorded for 5 minutes in quiet eyes open condition using a standard 10-20 EEG electrode placement system at pre-dose and 1, 2, 4, 8 and 24 hours after dosing. Each lead was referenced to the Oz electrode. Artifacts were removed via visual inspections. EEG spectra were computed using Fourier transformation. The alpha-band frequency was set to 8.5-12.5 Hz, the beta-band frequency was set to 12.5 to 30 Hz. The ratio between each post-dose value and the associated pre-dose value for each electrode was used to calculate the fold EEG change in each frequency band so that a ratio of 1 represents no change from baseline. The mean of the central 9 electrodes was used for each subject and timepoint for final analysis.

GABAA receptors = test: Pre-clinical qEEG beta power and animal models of anxiety and depression; assay type: in vivo; settings: pre-clinical studies
[3] = Example 3 Part C: tablet single ascending doses, morning fasted vs 8 p.m., plasma pharmacokinetics; assay type: in vivo, human; settings: for half-life: Mean (SD); for AUC(0-inf): AUCinf
Experimental: Patients with severe major depressive disorder (MDD) aged 18 to 65 years were treated with an oral suspension or tablet of Compound 1 to study the effect of food and time of administration on the pharmacokinetics, as well as the safety and tolerability of these formulations.
Part C is a randomized, participant- and Investigator-blinded, Sponsor-unblinded, placebo-controlled, parallel-group design to evaluate the pharmacokinetics and safety of single ascending doses of a Compound 1 citrate tablet. One cohort of 16 participants was planned, with 12 participants receiving Compound 1 and 4 participants receiving placebo. Part C also evaluated administration of a single dose level at 8 p.m., both 2 hours and 4 hours after dinner.
Preliminary pharmacokinetics data from Part A, where 45 mg and 60 mg of oral suspension were administered (Cohort 1), and Part C, where 40 mg (2×20 mg), 60 mg (3×20 mg) and 80 mg (4×20 mg) of the tablet formulation were administered, have been analyzed and are summarized below.
A tablet comprising Compound 1 was administered as single ascending doses of 40 mg, 60 mg and 80 mg under fasted conditions in the morning (FIG. 5). The 60 mg dosage was administered on two additional occasions at 8 p.m., once 4 hours after dinner and once 2 hours after dinner (FIG. 6).

[4] = 30 mg, one hour post-dose on Day 1, healthy volunteers
[5] = 60 mg, one hour post-dose on Day 1, healthy volunteers
[6] = healthy volunteers, days 1 and 14

**Q.** For `COC[C@@]1(O)CC[C@@]2(C)[C@@H](CC[C@@H]3[C@@H]2CC[C@]2(C)[C@@H](C(=O)Cn4ccnc4)CC[C@@H]32)C1` [Compound 1, 3α-Hydroxy-3β-methoxymethyl-21-(1′-imidazolyl)-5α-pregnan-20-one], which “patients meeting the HAM-D Response or Remission criterion” value ([1]; 45 mg Cohort (qHS), Day 7) is on record?
**A.** The value was 11 of the 13.

**Q.** And the “patients meeting the HAM-D Response or Remission criteria” value ([1]; 45 mg Cohort (qHS))?
**A.** Its value is 8 of the 13.

**Q.** And the “patients meeting the HAM-D Response or Remission criteria” value ([1]; 80 mg Cohort (qHS))?
**A.** Its value is 6 of the 7.

**Q.** What about the “Efficacy (reduction Mean Change from Baseline in HAM-D score)” value ([1]; as monotherapy (no background antidepressant) and in combination with another antidepressant) of the same compound?
**A.** The value was “observed”.

**Q.** What about the “symptoms of MDD” value ([1]; daily dose of 45 mg or 80 mg) of the same compound?
**A.** Its value is “reduced symptoms of moderate to severe MDD”.

**Q.** And the “Efficacy (reduction Mean Change from Baseline in HAM-D score)” value ([1]; patients in first course of antidepressant treatment and patients that failed previous courses)?
**A.** Its value is “observed”.

**Q.** What about the “effects on the qEEG alpha and beta power at Day 14” value ([2]; 30 mg and 60 mg QD) of the same compound?
**A.** The value was “sustained”.

**Q.** And the “average increase in qEEG alpha power compared to baseline” value [2, 4]?
**A.** The value was “approximately 1.5 fold”.

**Q.** And the “average increase in qEEG beta power compared to baseline” value [2, 4]?
**A.** The value was about 1.6 fold.

**Q.** And the “increase in qEEG alpha power compared to baseline” value [2, 5]?
**A.** The value was 2.6 fold.

**Q.** And the “increase in qEEG beta power compared to baseline” value [2, 5]?
**A.** Its value is 2.8 fold.

**Q.** What about the “increases in beta power” value ([2]; MAD study, up to 60 mg) of the same compound?
**A.** Its value is “up to 2.8 fold”.

**Q.** And the “power of the alpha-band frequency (qEEG)” value [2, 6]?
**A.** Its value is “marked increases; also recorded: markedly increase”.

**Q.** What about the “power of the beta-band frequency (qEEG)” value [2, 6] of the same compound?
**A.** The value was “marked increases; also recorded: markedly increase”.

**Q.** What about the “increase in beta power associated with robust activity in animal models of anxiety and depression” value (GABAA receptors) of the same compound?
**A.** The value was 1.6 fold.

**Q.** And the Tmax ([3]; human, in vivo, 40 mg)?
**A.** Its Tmax is 1.5 h.

**Q.** What about the half-life ([3]; human, in vivo, 40 mg, 9 a.m. administration (fasted), N = 13) of the same compound?
**A.** The half-life was 11.9 h.

**Q.** And the AUC(0-inf) ([3]; human, in vivo, 40 mg)?
**A.** The AUC(0-inf) was 1390 ng·h/mL.

**Q.** What about the Cmax ([3]; human, in vivo, 40 mg) of the same compound?
**A.** The Cmax was 181 ng/mL.

**Q.** What about the Tmax ([3]; human, in vivo, 60 mg) of the same compound?
**A.** The Tmax was 2.5 h.

**Q.** What about the tmax ([3]; human, in vivo, 60 mg) of the same compound?
**A.** Its tmax is 2.5 (1.0, 3.0) h.

**Q.** And the half-life ([3]; human, in vivo, 60 mg, 8 p.m. administration (60 mg), 2 h after dinner, N = 12)?
**A.** Its half-life is 9.6 h.

**Q.** And the half-life ([3]; human, in vivo, 60 mg, 8 p.m. administration (60 mg), 4 h after dinner, N = 11)?
**A.** The half-life was 11.4 h.

**Q.** And the half-life ([3]; human, in vivo, 60 mg, 9 a.m. administration (fasted), N = 12)?
**A.** Its half-life is 11.5 h.

**Q.** And the AUC(0-inf) ([3]; human, in vivo, 60 mg)?
**A.** The AUC(0-inf) was 2610 ng·h/mL.

**Q.** What about the Cmax ([3]; human, in vivo, 60 mg) of the same compound?
**A.** The Cmax was 408 ng/mL.

**Q.** And the half-life ([3]; human, in vivo, 80 mg, 9 a.m. administration (fasted), N = 12)?
**A.** The half-life was 11.4 h.

**Q.** And the AUC(0-inf) ([3]; human, in vivo, 80 mg)?
**A.** The AUC(0-inf) was 3980 ng·h/mL.

**Q.** What about the Cmax ([3]; human, in vivo, 80 mg) of the same compound?
**A.** The Cmax was 546 ng/mL.

**Q.** What about the “dose proportionality of exposure” value ([3]; tablet, fasted, between 60 mg and 80 mg) of the same compound?
**A.** Its value is “closer to dose-proportional”.

**Q.** What about the “increase in exposure over a 2-fold increase in dose” value ([3]; tablet, fasted, from 40 mg to 80 mg) of the same compound?
**A.** Its value is about 3 fold.
